Measured values taken from ChEMBL document CHEMBL4400545 (Bioorg Med Chem, 2019).

Target: Sodium- and chloride-dependent GABA transporter 1 (Mus musculus) (UniProt P31648)
Assay: Inhibition of mouse GAT-1 assessed as percentage of remaining specific binding of NO711 at 1 uM after 4 hrs by LC-ESI-MS/ms analysis relative to control

Structure (SMILES) | Activity [%]
O=C(O)C1CCCN(CCO/N=C/c2ccccc2)C1 (racemic) | 74
O=Cc1ccccc1-c1ccc(F)cc1Cl | 93
O=C(O)C1CCCN(CCO/N=C/c2cccnc2Br)C1 (racemic) | 71
O=Cc1cc(F)ccc1-c1ccc(Cl)cc1Cl | 82
O=C(O)C1CCCN(CCO/N=C/c2csc3ccccc23)C1 (racemic) | 48
Cc1onc(-c2ccc(Cl)cc2)c1C=O | 92
O=C(O)C1CCCN(CCO/N=C/c2cccnc2-c2ccccc2F)C1 (racemic) | 32
O=CC(c1ccccc1)c1ccccc1 | 90
O=Cc1cccnc1-c1ccccc1 | 87
O=Cc1cccnc1-c1ccc(Cl)cc1Cl | 86
O=Cc1ccc(-c2ccc(C(F)(F)F)cc2Cl)o1 | 82
O=C(O)C1CCCN(CCO/N=C/c2ccccc2-n2cccn2)C1 (racemic) | 37
O=Cc1ccc(Br)cn1 | 92
Cc1ccccc1-c1ncccc1/C=N/OCCN1CCCC(C(=O)O)C1 (racemic) | 22
O=Cc1cc(F)ccc1-c1ccccc1 | 80
O=Cc1ccc(Oc2ccccc2)cc1 | 90
O=Cc1cc2c(cc1-c1ccccc1)OCO2 | 92
O=Cc1ccccc1-c1ccccc1Cl | 93
O=Cc1ccccc1 | 89
O=Cc1csc2ccccc12 | 94
O=Cc1cccc(Br)n1 | 92
O=Cc1cccc2c1OCO2 | 80

Structure (SMILES) | Activity [%]
O=C(O)C1CCCN(CCO/N=C/c2ccccc2Oc2ccccc2)C1 (racemic) | 37
O=C(O)C1CCCN(CCO/N=C/c2ccccn2)C1 (racemic) | 45
O=Cc1cccnc1-c1ccc(Cl)cc1 | 87
O=C(O)C1CCCN(CCO/N=C/c2cc3c(cc2-c2ccccc2Cl)OCO3)C1 (racemic) | 19
O=Cc1c[nH]c2ncccc12 | 85
O=Cc1ccccc1-c1cccc(F)c1 | 92
O=Cc1cccn1-c1ccc(C(F)(F)F)cc1 | 82
O=Cc1sccc1-c1ccccc1 | 94
O=C(O)C1CCCN(CCO/N=C/c2sccc2-n2cccc2)C1 (racemic) | 60
O=Cc1ccnc2ccccc12 | 87
O=Cc1ccc([N+](=O)[O-])cc1 | 92
O=Cc1cccnc1 | 94
O=C(O)C1CCCN(CCO/N=C/c2cccnc2-c2cccc(F)c2)C1 (racemic) | 22
O=C(O)C1CCCN(CCO/N=C/c2ccnc3ccccc23)C1 (racemic) | 62
O=C(O)C1CCCN(CCO/N=C/c2ccc(OCc3ccccc3)cc2)C1 (racemic) | 29
O=Cc1ccc(OCc2ccccc2)cc1 | 90
O=C(O)C1CCCN(CCO/N=C/c2cccc3ccccc23)C1 (racemic) | 61
O=C(O)C1CCCN(CCO/N=C/c2ccc3ccccc3n2)C1 (racemic) | 62
O=Cc1ccccc1-c1ccc(Cl)cc1Cl | 93
O=Cc1ccccc1-c1cccc(Cl)c1 | 92
Cc1ccccc1-c1ncccc1C=O | 87
O=C(O)C1CCCN(CCO/N=C/c2ccccc2-c2ccco2)C1 (racemic) | 32

Structure (SMILES) | Activity [%]
COc1ccc(/C=N/OCCN2CCCC(C(=O)O)C2)c2ccccc12 (racemic) | 61
COc1ccc(/C=N/OCCN2CCCC(C(=O)O)C2)cc1 (racemic) | 74
O=Cc1ccccc1-c1cccnc1 | 88
COc1ccc(C=O)cc1 | 89
O=C(O)C1CCCN(CCO/N=C/c2cccnc2)C1 (racemic) | 48
O=C(O)C1CCCN(CCO/N=C/c2cc3c(cc2-c2ccccc2F)OCO3)C1 (racemic) | 19
O=Cc1cccnc1-c1cccc(F)c1 | 87
O=Cc1ccc(Br)nc1 | 92
O=C(O)C1CCCN(CCO/N=C/c2ccc3ccccc3c2)C1 (racemic) | 61
O=C(O)C1CCCN(CCO/N=C/c2ccccc2-n2cccc2)C1 (racemic) | 33
O=Cc1c2ccccc2cc2ccccc12 | 87
O=Cc1cc2c(cc1-c1ccccc1Cl)OCO2 | 92
O=C(O)C1CCCN(CCO/N=C/c2ccc(O)cc2)C1 (racemic) | 74
O=C(O)C1CCCN(CCO/N=C/c2ccc(Oc3ccccc3)cc2)C1 (racemic) | 29
O=Cc1cccc([N+](=O)[O-])c1 | 92
O=C(O)C1CCCN(CCO/N=C/c2ccc(C#Cc3ccccc3)s2)C1 (racemic) | 48
O=Cc1ccc(-c2ccccc2OC(F)(F)F)o1 | 82
O=C(O)C1CCCN(CCO/N=C/c2cccnc2-c2ccc(Cl)cc2)C1 (racemic) | 22
O=Cc1c[nH]nc1-c1ccc(F)cc1 | 92
O=Cc1ccccc1-c1cccc(F)c1F | 88
O=C(O)C1CCCN(CCO/N=C/c2cccc(Br)n2)C1 (racemic) | 71
O=Cc1cccc(Oc2ccccc2)c1 | 90

Structure (SMILES) | Activity [%]
O=Cc1ccccc1-c1ccccc1F | 93
O=Cc1ccccc1-n1cccn1 | 88
O=Cc1ccccc1-c1ccc2ccccc2c1 | 86
O=C(O)C1CCCN(CCO/N=C/c2ccc([N+](=O)[O-])cc2)C1 (racemic) | 60
O=Cc1ccccc1-c1ccc(Cl)cc1 | 92
O=Cc1ccccc1-c1ccco1 | 80
O=CC1CC2C=CC1C2 (stereo unspecified) | 85
O=C(O)C1CCCN(CCO/N=C/c2ccccc2-c2cccc3ccccc23)C1 (racemic) | 45
O=C(O)C1CCCN(CCO/N=C/C2CC3C=CC2C3)C1 (racemic) | 45
O=Cc1sccc1-c1ccc(F)cc1Cl | 86
O=C(O)C1CCCN(CCO/N=C/c2cc3c(cc2-c2ccccc2)OCO3)C1 (racemic) | 19
O=Cc1ccc2c(c1)Cc1ccccc1-2 | 88
Cc1ccsc1-c1sc(C=O)cc1C | 97
COc1ccccc1/C=N/OCCN1CCCC(C(=O)O)C1 (racemic) | 74
O=Cc1ccccc1-c1c(F)cccc1F | 88
O=Cc1sccc1-c1ccc(Cl)cc1Cl | 86
O=C(O)C1CCCN(CCO/N=C/COCc2ccccc2)C1 (racemic) | 60
O=Cc1ccccc1-c1ccccc1 | 90
O=Cc1ccccc1-c1cc(F)ccc1F | 88
Cc1ccsc1-c1sc(/C=N/OCCN2CCCC(C(=O)O)C2)cc1C (racemic) | 33
O=Cc1ccccc1-n1cccc1 | 97
O=C(O)C1CCCN(CCO/N=C/c2cccc3c2OCO3)C1 (racemic) | 32

Structure (SMILES) | Activity [%]
O=C(O)C1CCCN(CCO/N=C/c2ccncc2)C1 (racemic) | 60
O=C(O)C1CCCN(CCO/N=C/c2cc3ccccc3c3ccccc23)C1 (racemic) | 62
O=Cc1ccccn1 | 85
O=C(O)C1CCCN(CCO/N=C/c2cccnc2-c2ccccc2Cl)C1 (racemic) | 33
O=Cc1ccc(-c2ccccc2)cc1 | 90
O=Cc1cc(F)ccc1-c1ccccc1F | 80
O=Cc1ccccc1-c1cccs1 | 92
O=C(O)C1CCCN(CCO/N=C/c2ccccc2[N+](=O)[O-])C1 (racemic) | 60
O=Cc1ccc(O)cc1 | 89
CC(C=O)(CCC#N)c1ccccc1 (stereo unspecified) | 92
O=C(O)C1CCCN(CCO/N=C/c2ccc(O)c3ccccc23)C1 (racemic) | 61
O=C(O)C1CCCN(CCO/N=C/c2cccnc2-c2cccc(Cl)c2)C1 (racemic) | 32
COc1ccccc1C=O | 89
O=Cc1ccccc1[N+](=O)[O-] | 92
O=C(O)C1CCCN(CCO/N=C/c2ccc(Br)nc2)C1 (racemic) | 71
O=Cc1cccnc1-c1ccccc1F | 80
O=C(O)C1CCCN(CCO/N=C/c2ccccc2-c2cccnc2)C1 (racemic) | 37
O=Cc1ccc(C#Cc2ccccc2)s1 | 94
O=C(O)C1CCCN(CCO/N=C/c2ccc3c(c2)Cc2ccccc2-3)C1 (racemic) | 37
O=C(O)C1CCCN(CCO/N=C/c2cccc([N+](=O)[O-])c2)C1 (racemic) | 60
O=Cc1cc2c(cc1-c1ccc(Cl)cc1Cl)OCO2 | 92
Cc1ccc(/C=N/OCCN2CCCC(C(=O)O)C2)c2ccccc12 (racemic) | 60

Structure (SMILES) | Activity [%]
O=C(O)C1CCCN(CCO/N=C/c2cccnc2-c2ccccc2)C1 (racemic) | 22
O=Cc1cc2c(cc1-c1ccccc1F)OCO2 | 92
O=Cc1cc(F)ccc1-c1ccccc1Cl | 80
O=Cc1ccccc1-c1ccc(F)cc1 | 92
O=Cc1cccnc1-c1ccccc1Cl | 97
O=C(O)C1CCCN(CCO/N=C/c2ccccc2OCc2ccccc2)C1 (racemic) | 29
O=Cc1ccc2ccccc2n1 | 87
O=Cc1ccccc1Oc1ccccc1 | 88
Cc1noc(-c2ccccc2/C=N/OCCN2CCCC(C(=O)O)C2)n1 (racemic) | 33
O=Cc1cccnc1Br | 92
O=C(O)C1CCCN(CCO/N=C/c2ccc(Br)cn2)C1 (racemic) | 71
O=C(O)C1CCCN(CCO/N=C/c2c[nH]c3ncccc23)C1 (racemic) | 45
O=Cc1sccc1-n1cccc1 | 92
O=C(O)C1CCCN(CCO/N=C/c2c3ccccc3cc3ccccc23)C1 (racemic) | 62
O=Cc1ccccc1-c1cccc2ccccc12 | 85
O=C(O)C1CCCN(CCO/N=C/c2cc3c(cc2-c2ccc(Cl)cc2Cl)OCO3)C1 (racemic) | 19
O=C(O)C1CCCN(CCO/N=C/c2cccc(Oc3ccccc3)c2)C1 (racemic) | 29
O=Cc1ccccc1OCc1ccccc1 | 90
Cc1noc(-c2ccccc2C=O)n1 | 97
O=C(O)C1CCCN(CCO/N=C/c2ccc(F)c3ccccc23)C1 (racemic) | 60
O=Cc1cccnc1-c1cccc(Cl)c1 | 80
